Reference: article PMC4923153, “Protection of Primary Dopaminergic Midbrain Neurons by GPR139 Agonists Supports Different Mechanisms of MPP^+ and Rotenone Toxicity” (Frontiers in Cellular Neuroscience, 2016)

Tests used:
Assay type in all cases: cell-based, mice
[1] = test system: primary DA midbrain neurons; experiment: Protection of primary DA midbrain neurons against rotenone toxicity (TH-positive neuron count); details: 1 μM agonist 1 h, 0-100 nM rotenone 24 h, n = 4
Procedure: (§1) Experiments were conducted in accordance with the ethical guidelines of H. Lundbeck A/S and the Danish legislation of animal use for scientific procedures. Cell culture was basically performed as described (Nagel et al., [2008]), with few modifications. […] Plates were stored at 4°C until tyrosine-hydroxylase-positive (TH-positive) neurons were counted using a Thermo Scientific Cellomics® ArrayScan® VTI HCS Reader. […] To ensure that only healthy primary cultures were assessed, we furthermore excluded experiments with total cell counts below Mean minus standard deviation (SD) of the summarized experiments. […]
Mesencephalic cultures were treated with 1 μM of either one of the GPR139 agonists compound 1 ( [drawing 13] ), compound 2 ( [drawing 14] ), or compound 3 ( [drawing 15] ), or vehicle ( [drawing 16] ) for 1 h before exposing them to 0–100 nM of rotenone. […] TH-positive neurons were counted and normalized to control numbers (100%).

[2] = test system: primary DA midbrain neurons; experiment: Protection of primary DA midbrain neurons against 6-OHDA toxicity (TH-positive neuron count); details: 1 μM agonist 1 h, 0-50 μM 6-OHDA 24 h
Procedure: as §1
Neuronal midbrain cultures were pretreated with 1 μM of either one of the agonists compound 1 ( [drawing 9] ), compound 2 ( [drawing 10] ), or compound 3 ( [drawing 11] ), or vehicle ( [drawing 12] ) for 1 h, followed by treatment with the indicated concentrations of 6-hydroxydopamine (6-OHDA) for 24 h. TH-positive neurons were counted and normalized to control numbers.

[3] = test system: primary DA midbrain neurons; experiment: Protection of primary DA midbrain neurons against MPP+ toxicity (TH-positive neuron count); details: 1 μM MPP+ 24 h
Procedure: Experiments were conducted in accordance with the ethical guidelines of H. Lundbeck A/S and the Danish legislation of animal use for scientific procedures. Cell culture was basically performed as described (Nagel et al., [2008]), with few modifications. Briefly, the mesencephalon floor was dissected from embryonic day (E) 13 mice, tissue pieces collected in HBBS, transferred to 0.1% trypsin, 0.05% DNAse (Sigma-Aldrich DN25–1G) and incubated at 37°C in a humidified atmosphere with 5% CO2 for 20 min; washed in DNAse, homogenized and centrifuged at 200× g, resuspended in medium (DMEM (Gibco 41965–039), 10% FCS, 1% P/S (Gibco, 15140–122), l.5% HEPES (Gibco, 15630–056), 1% Sodium Pyruvate (Gibco, 11360–039)) and plated on poly-L-lysine coated 96-well dishes. The medium was switched to neurobasal medium after 90 min (neurobasal (Gibco 21103–049) with 1% P/S, 2% B27 (Gibco, 17504–044), 1.25% 0.5 mM L-glutamine (Gibco, 25030–024)). After 6 days in vitro (DIV), cultures were treated with 1 μM of three different GPR139 agonists and in some experiments, concomitantly, with 10 μM of the antagonist for1 h, before exposing them to 0–1 μM MPP^+, 0–50 μM 6-OHDA or 0–100 nM rotenone for 24 h. For the MPP^+ treated cultures, it was also tested whether the effect of the GPR139 agonists could be blocked by concomitantly applying 10 μM GPR139 antagonist (IC50 3 μM). Subsequently, cells were fixed in 4% PFA/PBS for 10 min, washed with PBS, incubated in 0.5% BSA/0.1% Triton-X/5% porcine serum for 20 min, and incubated for 24 h in rabbit anti-tyrosine hydroxylase antibodies (1:1000 in PBS, Millipore AB152); washed 2 × 5 min in PBS. Secondary antibodies (Alexa 488 rabbit) were applied 1:200 in PBS with 0.2 μg/ml Hoechst dye for 1 h and washed 2 × 5 min in PBS. One drop of DAKO fluorescent mounting medium were applied into each well. Plates were stored at 4°C until tyrosine-hydroxylase-positive (TH-positive) neurons were counted using a Thermo Scientific Cellomics® ArrayScan® VTI HCS Reader. Results were normalized against control condition and compared. Experiments were only included in the evaluation if at least 30% cell death was induced at the highest toxin concentration compared to non-treated control wells. To ensure that only healthy primary cultures were assessed, we furthermore excluded experiments with total cell counts below Mean minus standard deviation (SD) of the summarized experiments. […]
To examine whether GPR139 agonists protect against toxin-induced DA cell death, we first treated cultured DA midbrain neurons with the GPR139 agonists and MPP^+ . Subsequently, we determined survival of TH-positive neurons.
Figure 8 Three different GPR139 surrogate agonists protect primary dopaminergic (DA) midbrain neurons against 1-methyl-4-phenyl-pyridinium ionMPP^+ toxicity. […] TH-positive neurons were counted and normalized to numbers under control conditions. […] Each data point is calculated from 12 (0 μM and 1 μM MPP^+ concentrations); 4 (0.125 μM); 7 (0.25 μM); or 8 (0.5 μM) independent measurements.
Primary midbrain cultures were pretreated with the indicated amount of GPR139 agonist compound 3 and with either vehicle ( [drawing 5] ), or 1 μM MPP^+ ( [drawing 6] ); or MPP^+ with 10 μM of the antagonist compound 4 ( [drawing 7] ), or with the antagonist compound 4 alone ( [drawing 8] ). The number of TH-positive neurons was determined 24 h later and normalized to control conditions. […]

Which results are given for `CN(C)C1CCN(C(=O)CNC(=O)Cc2cccc3ccccc23)C1` (stereo not shown) [compound 2, N-[2-(3-Dimethylamino-pyrrolidin-1-yl)-2-oxo-ethyl]-2-Naphthalen-1-yl-acetamide]?
protection against rotenone toxicity [1]: do not protect; protection against 6-OHDA toxicity [2]: do not protect; protection against MPP+ toxicity ([3]; 1 μM agonist 1 h, p ≤ 0.05 vs vehicle): significant; cells killed by 1 μM MPP+ that were rescued ([3]; 1 μM compound pre-incubation 1 h, TH-positive neurons): 40.5%
